ChEMBL document CHEMBL3351749, “Synthesis, in vitro antimicrobial and cytotoxic activities of new carbazole derivatives of ursolic acid” (Bioorg Med Chem Lett, 2015)
≈ marks a conversion by molar mass, not a printed value.

How the values were obtained:
Bacillus subtilis = assay: Antimicrobial activity against Bacillus subtilis CGMCC1.1162 after 24 hrs by modified microdilution method; format: functional; details: CGMCC1.1162, 24 h
Staphylococcus aureus = assay: Antimicrobial activity against Staphylococcus aureus CGMCC1.1361 after 24 hrs by modified microdilution method; format: functional; details: CGMCC1.1361, 24 h
Escherichia coli = assay: Antimicrobial activity against Escherichia coli CGMCC1.1571 after 24 hrs by modified microdilution method; format: functional; details: CGMCC1.1571, 24 h
Pseudomonas fluorescens = assay: Antimicrobial activity against Pseudomonas fluorescens CGMCC1.1828 after 24 hrs by modified microdilution method; format: functional; details: CGMCC1.1828, 24 h
Aspergillus niger = assay: Antimicrobial activity against Aspergillus niger CGMCC3.316 after 48 hrs by modified microdilution method; format: functional; details: CGMCC3.316, 48 h
Candida albicans = assay: Antimicrobial activity against Candida albicans CGMCC2.2086 after 48 hrs by modified microdilution method; format: functional; details: CGMCC2.2086, 48 h
Candida tropicalis = assay: Antimicrobial activity against Candida tropicalis CGMCC2.3967 after 48 hrs by modified microdilution method; format: functional; details: CGMCC2.3967, 48 h
[1] = Cytotoxicity against human […] cells assessed as cell survival after 48 hrs by MTT assay; format: functional, cell-based
HepG2 = assay: Cytotoxicity against human HepG2 cells assessed as cell survival after 48 hrs by MTT assay; format: functional, cell-based; details: HepG2, 48 h

| SMILES | MIC (Bacillus subtilis) [µg/mL] | MIC (Staphylococcus aureus) [µg/mL] | MIC (Escherichia coli) [µg/mL] | MIC (Pseudomonas fluorescens) [µg/mL] | MIC (Aspergillus niger) [µg/mL] | MIC (Candida albicans) [µg/mL] | MIC (Candida tropicalis) [µg/mL] | IC50 [1] [µM] | IC50 (HepG2) [µM] |
| --- | --- | --- | --- | --- | --- | --- | --- | --- | --- |
| C[C@H]1[C@H](C)CC[C@]2(C(=O)NCCCN(C)C)CC[C@]3(C)C(=CC[C@@H]4[C@@]5(C)Cc6c([nH]c7ccc(F)cc67)C(C)(C)[C@@H]5CC[C@]43C)[C@H]12 | 3.9 (≈ 6.19 µM) | 7.8 (≈ 12.4 µM) | 7.8 (≈ 12.4 µM) | 7.8 (≈ 12.4 µM) | 31.2 (≈ 49.5 µM) | 31.2 (≈ 49.5 µM) | 31.2 (≈ 49.5 µM) | 4.6 | 6.03 |
| Cc1ccc2[nH]c3c(c2c1)C[C@]1(C)[C@H]2CC=C4[C@@H]5[C@@H](C)[C@H](C)CC[C@]5(C(=O)O)CC[C@@]4(C)[C@]2(C)CC[C@H]1C3(C)C | 62.5 (≈ 115 µM) | 62.5 (≈ 115 µM) | 31.2 (≈ 57.6 µM) | 62.5 (≈ 115 µM) | > 100 | > 100 | > 100 | 13.8 | 17 |
| COc1cccc2c1C(=O)c1c(O)c3c(c(O)c1C2=O)C[C@@](O)(C(=O)CO)C[C@@H]3O[C@H]1C[C@H](N)[C@H](O)[C@H](C)O1 [DOXORUBICIN] | – | – | – | – | – | – | – | 0.62 | 0.77 |
| C[C@H]1[C@H](C)CC[C@]2(C(=O)O)CC[C@]3(C)C(=CC[C@@H]4[C@@]5(C)Cc6c([nH]c7ccc(Cl)cc67)C(C)(C)[C@@H]5CC[C@]43C)[C@H]12 | 31.2 (≈ 55.5 µM) | 31.2 (≈ 55.5 µM) | 31.2 (≈ 55.5 µM) | 31.2 (≈ 55.5 µM) | > 100 | > 100 | > 100 | 29.9 | 30.9 |
| COC(=O)[C@]12CC[C@@H](C)[C@H](C)[C@H]1C1=CC[C@@H]3[C@@]4(C)Cc5c([nH]c6ccc(Br)cc56)C(C)(C)[C@@H]4CC[C@@]3(C)[C@]1(C)CC2 | 62.5 (≈ 101 µM) | 31.2 (≈ 50.3 µM) | > 100 | 62.5 (≈ 101 µM) | > 100 | > 100 | > 100 | > 100 | > 100 |
| CCOc1ccc2[nH]c3c(c2c1)C[C@]1(C)[C@H]2CC=C4[C@@H]5[C@@H](C)[C@H](C)CC[C@]5(C(=O)O)CC[C@@]4(C)[C@]2(C)CC[C@H]1C3(C)C | 62.5 (≈ 109 µM) | 62.5 (≈ 109 µM) | 62.5 (≈ 109 µM) | 62.5 (≈ 109 µM) | > 100 | > 100 | > 100 | 24.5 | 33 |
| C[C@H]1[C@H](C)CC[C@]2(C(=O)NCCCN(C)C)CC[C@]3(C)C(=CC[C@@H]4[C@@]5(C)Cc6c([nH]c7ccc(Cl)cc67)C(C)(C)[C@@H]5CC[C@]43C)[C@H]12 | 15.6 (≈ 24.1 µM) | 7.8 (≈ 12.1 µM) | 15.6 (≈ 24.1 µM) | 31.2 (≈ 48.3 µM) | 31.2 (≈ 48.3 µM) | 62.5 (≈ 96.7 µM) | 62.5 (≈ 96.7 µM) | 2.78 | 4.02 |
| C[C@H]1[C@H](C)CC[C@]2(C(=O)O)CC[C@]3(C)C(=CC[C@@H]4[C@@]5(C)CCC(=O)C(C)(C)[C@@H]5CC[C@]43C)[C@H]12 [URSONIC ACID] | 31.2 (≈ 68.6 µM) | 62.5 (≈ 137 µM) | 31.2 (≈ 68.6 µM) | 62.5 (≈ 137 µM) | > 100 | > 100 | > 100 | > 100 | > 100 |
| COC(=O)[C@]12CC[C@@H](C)[C@H](C)[C@H]1C1=CC[C@@H]3[C@@]4(C)Cc5c([nH]c6ccc(F)cc56)C(C)(C)[C@@H]4CC[C@@]3(C)[C@]1(C)CC2 | 31.2 (≈ 55.7 µM) | 15.6 (≈ 27.9 µM) | 31.2 (≈ 55.7 µM) | 31.2 (≈ 55.7 µM) | 62.5 (≈ 112 µM) | 62.5 (≈ 112 µM) | 62.5 (≈ 112 µM) | > 100 | 97 |
| CC(=O)N1CCN(c2ccc(OCC3COC(Cn4ccnc4)(c4ccc(Cl)cc4Cl)O3)cc2)CC1 (stereo unspecified) [KETOCONAZOLE] | – | – | – | – | 7.8 (≈ 14.7 µM) | 3.9 (≈ 7.34 µM) | 3.9 (≈ 7.34 µM) | – | – |
| NCC[C@H](O)C(=O)N[C@@H]1C[C@H](N)[C@@H](O[C@H]2O[C@H](CN)[C@@H](O)[C@H](O)[C@H]2O)[C@H](O)[C@H]1O[C@H]1O[C@H](CO)[C@@H](O)[C@H](N)[C@H]1O [AMIKACIN] | 0.9 (≈ 1.54 µM) | 0.9 (≈ 1.54 µM) | 1.9 (≈ 3.24 µM) | 0.9 (≈ 1.54 µM) | – | – | – | – | – |
